# The supplement of paper PMC10307832
# Compound: CCn1c(-c2nonc2N)nc2c(C#CC(C)(C)O)ncc(OC[C@H]3CCCNC3)c21 + CC(=O)c1c(C)c2cnc(Nc3ccc(N4CCNCC4)cn3)nc2n(C2CCCC2)c1=O [Palbociclib] (partner 0.5 µM)
# Test: relative viability (nuclei count vs DMSO), 5 days (fraction); higher = more cells survive
# Conditions: first compound 0.01 µM
# In short: (§1)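 One day after seeding in 1536-well plates, lung cancer cell lines were dosed by pin tool. Dosing was either single-drug or a fixed anchor-drug dose plus five library-drug doses (not always all listed) in √10 steps. After 5 days, nuclei were stained in one fix-and-stain step and counted on 4× images, and relative viability is the nuclei count of treated wells over that of vehicle wells, given as the median of duplicate plates.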
row,Cell Line,relative viability
1,LC-2-ad,0.547
2,NCI-H1944,0.359
3,NCI-H1975,0.484
4,RERF-LC-KJ,1.02
5,ABC-1,0.578
6,NCI-H358,0.139
7,NCI-H650,0.318
8,PC-3 [JPC-3],0.529

# Same assay, conditions: first compound 0.03162 µM
row,Cell Line,relative viability
1,LC-2-ad,0.455
2,NCI-H1944,0.353
3,NCI-H1975,0.599
4,RERF-LC-KJ,1.06
5,NCI-H358,0.147
6,NCI-H650,0.33

# Same assay, conditions: first compound 0.1 µM
row,Cell Line,relative viability
1,LC-2-ad,0.546
2,NCI-H1944,0.348
3,NCI-H1975,0.51
4,RERF-LC-KJ,1.02
5,ABC-1,0.678
6,NCI-H358,0.122
7,NCI-H650,0.304
8,PC-3 [JPC-3],0.556

# Same assay, conditions: first compound 0.3162 µM
row,Cell Line,relative viability
1,LC-2-ad,0.502
2,NCI-H1944,0.314
3,NCI-H1975,0.544
4,RERF-LC-KJ,0.915
5,ABC-1,0.735
6,NCI-H358,0.151
7,NCI-H650,0.368
8,PC-3 [JPC-3],0.557

# Same assay, conditions: first compound 1 µM
row,Cell Line,relative viability
1,LC-2-ad,0.462
2,NCI-H1944,0.325
3,NCI-H1975,0.305
4,RERF-LC-KJ,1.05
5,ABC-1,0.555
6,NCI-H358,0.131
7,NCI-H650,0.325
8,PC-3 [JPC-3],0.531

# Compound: CCn1c(-c2nonc2N)nc2c(C#CC(C)(C)O)ncc(OC[C@H]3CCCNC3)c21 + O=C(c1cc(Cc2n[nH]c(=O)c3ccccc23)ccc1F)N1CCN(C(=O)C2CC2)CC1 [Olaparib] (partner 8 µM)
# Test: as above
# Conditions: first compound 0.01 µM
# In short: as §1
row,Cell Line,relative viability
1,LC-2-ad,0.739
2,NCI-H1944,0.393
3,NCI-H1975,0.745
4,RERF-LC-KJ,1
5,ABC-1,0.684
6,NCI-H358,0.556
7,NCI-H650,0.387
8,PC-3 [JPC-3],1.07

# Same assay, conditions: first compound 0.03162 µM
row,Cell Line,relative viability
1,LC-2-ad,0.719
2,NCI-H1944,0.418
3,NCI-H1975,0.809
4,RERF-LC-KJ,0.87
5,NCI-H358,0.601
6,NCI-H650,0.43

# Same assay, conditions: first compound 0.1 µM
row,Cell Line,relative viability
1,LC-2-ad,0.716
2,NCI-H1944,0.4
3,NCI-H1975,0.837
4,RERF-LC-KJ,0.854
5,ABC-1,0.977
6,NCI-H358,0.569
7,NCI-H650,0.435
8,PC-3 [JPC-3],1.15

# Same assay, conditions: first compound 0.3162 µM
row,Cell Line,relative viability
1,LC-2-ad,0.657
2,NCI-H1944,0.41
3,NCI-H1975,0.784
4,RERF-LC-KJ,0.854
5,ABC-1,1.05
6,NCI-H358,0.525
7,NCI-H650,0.371
8,PC-3 [JPC-3],1.03

# Same assay, conditions: first compound 1 µM
row,Cell Line,relative viability
1,LC-2-ad,0.698
2,NCI-H1944,0.407
3,NCI-H1975,0.757
4,RERF-LC-KJ,0.797
5,ABC-1,1.03
6,NCI-H358,0.518
7,NCI-H650,0.392
8,PC-3 [JPC-3],1.09
